Test system: Acidithiobacillus ferrooxidans AfArsR variant C102S (biosensor co-cultured with Burkholderia sp. MR1)
Format: cell-based

SMILES: O=[N+]([O-])c1cc([As](=O)(O)O)ccc1O [Rox(V), 4-hydroxy-3-nitrobenzenearsonic acid]
- response of co-cultured biosensor: it didn't

SMILES: O=[As](O)(O)c1ccccc1 [PAA, phenylarsonic acid]
- response of co-cultured biosensor: it didn't

— patent publication US10640802B2 (priority 2012, dated 2020)
